Data set [1] deals with T1, AMP deaminase 2 (Homo sapiens, UniProt Q01433).
T1 sequence (Q01433 whole entry): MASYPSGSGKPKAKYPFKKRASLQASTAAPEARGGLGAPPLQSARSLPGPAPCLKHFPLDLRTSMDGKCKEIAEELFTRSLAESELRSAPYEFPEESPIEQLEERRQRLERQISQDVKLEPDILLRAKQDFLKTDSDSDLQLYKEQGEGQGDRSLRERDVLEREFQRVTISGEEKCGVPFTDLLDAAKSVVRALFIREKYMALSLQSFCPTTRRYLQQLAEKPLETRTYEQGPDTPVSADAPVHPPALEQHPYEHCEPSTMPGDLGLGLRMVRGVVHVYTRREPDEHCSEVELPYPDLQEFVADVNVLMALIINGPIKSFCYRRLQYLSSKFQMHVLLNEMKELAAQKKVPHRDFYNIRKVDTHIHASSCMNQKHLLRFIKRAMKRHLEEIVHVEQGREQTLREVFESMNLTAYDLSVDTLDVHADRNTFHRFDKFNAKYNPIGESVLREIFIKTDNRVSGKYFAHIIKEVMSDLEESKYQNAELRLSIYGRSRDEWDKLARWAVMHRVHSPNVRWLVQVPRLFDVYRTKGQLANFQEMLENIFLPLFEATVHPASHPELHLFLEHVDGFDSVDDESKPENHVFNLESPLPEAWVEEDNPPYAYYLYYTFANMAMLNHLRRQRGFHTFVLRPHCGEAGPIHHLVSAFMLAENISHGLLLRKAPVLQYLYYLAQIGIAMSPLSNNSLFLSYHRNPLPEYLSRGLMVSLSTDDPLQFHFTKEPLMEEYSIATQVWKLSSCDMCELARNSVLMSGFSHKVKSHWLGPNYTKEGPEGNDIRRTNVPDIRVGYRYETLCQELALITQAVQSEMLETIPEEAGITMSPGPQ
The data set can be described thus: Inhibition of recombinant human AMPD2 using AMP as substrate incubated for 30 mins by spectrophotometric analysis.

Data set [2] deals with T1, AMP deaminase 2. The data set can be described thus: Inhibition of recombinant human AMPD2 using AMP as substrate preincubated for 30 mins followed by substrate addition and measured after 30 mins by spectrophotometric analysis.
For data set [3], the target named is T2, AMP deaminase 2 (Homo sapiens) (UniProt Q01433).
T2 sequence (whole entry): T1 sequence (Q01433 whole entry)
The data set can be described thus: Selectivity ratio of IC50 for recombinant human AMPD2 using AMP as substrate incubated for 30 mins by spectrophotometric analysis to IC50 for recombinant human AMPD2 using AMP as substrate preincubated for 30 mins followed by substrate addition and measured after 30 mins by spectrophotometric analysis.

A short description of data set [4]: Metabolic stability in mouse liver microsomes assessed as compound remaining at 5 uM after 1 hr. Type of data set: ADME, Microsome. Particulars: read-out: Stability. (In general: Liver microsomes are a subcellular fraction often used to study metabolism.)
The nature of data set [5]: Ex vivo inhibition of AMPD2 in C57BL/6J mouse liver at 30 mg/kg, po administered for 1 hr. It is filed as functional.
Data set [6] addresses T3, AMP deaminase 2 (Mus musculus, UniProt Q9DBT5).
T3 sequence (Q9DBT5 whole entry): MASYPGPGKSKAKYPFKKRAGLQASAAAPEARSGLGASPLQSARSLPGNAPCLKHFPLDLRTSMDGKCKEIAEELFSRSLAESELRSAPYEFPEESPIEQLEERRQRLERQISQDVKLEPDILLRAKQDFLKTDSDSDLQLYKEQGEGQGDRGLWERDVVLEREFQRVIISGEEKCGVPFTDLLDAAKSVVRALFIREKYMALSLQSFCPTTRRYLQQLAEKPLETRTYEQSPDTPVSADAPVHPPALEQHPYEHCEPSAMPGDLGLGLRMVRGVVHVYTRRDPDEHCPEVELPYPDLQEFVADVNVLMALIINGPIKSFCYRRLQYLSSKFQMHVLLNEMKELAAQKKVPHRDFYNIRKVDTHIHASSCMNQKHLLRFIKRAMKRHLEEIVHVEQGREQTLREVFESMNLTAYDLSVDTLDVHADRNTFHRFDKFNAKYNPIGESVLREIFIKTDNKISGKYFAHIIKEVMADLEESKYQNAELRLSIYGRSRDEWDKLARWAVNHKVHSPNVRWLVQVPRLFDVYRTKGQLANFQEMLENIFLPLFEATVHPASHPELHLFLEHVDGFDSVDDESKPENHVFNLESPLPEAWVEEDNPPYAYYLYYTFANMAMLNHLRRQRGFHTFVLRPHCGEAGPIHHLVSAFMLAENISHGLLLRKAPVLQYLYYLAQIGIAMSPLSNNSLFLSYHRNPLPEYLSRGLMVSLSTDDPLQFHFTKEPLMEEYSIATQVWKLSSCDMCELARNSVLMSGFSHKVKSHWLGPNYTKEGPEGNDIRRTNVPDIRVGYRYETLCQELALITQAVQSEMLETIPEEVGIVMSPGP
The data set can be described thus: Inhibition of recombinant mouse AMPD2 using AMP as substrate preincubated for 30 mins followed by substrate addition and measured after 30 mins by spectrophotometric analysis.

Data set [7] deals with T4, AMP deaminase 1 (Homo sapiens) (UniProt P23109).
T4 sequence (whole entry): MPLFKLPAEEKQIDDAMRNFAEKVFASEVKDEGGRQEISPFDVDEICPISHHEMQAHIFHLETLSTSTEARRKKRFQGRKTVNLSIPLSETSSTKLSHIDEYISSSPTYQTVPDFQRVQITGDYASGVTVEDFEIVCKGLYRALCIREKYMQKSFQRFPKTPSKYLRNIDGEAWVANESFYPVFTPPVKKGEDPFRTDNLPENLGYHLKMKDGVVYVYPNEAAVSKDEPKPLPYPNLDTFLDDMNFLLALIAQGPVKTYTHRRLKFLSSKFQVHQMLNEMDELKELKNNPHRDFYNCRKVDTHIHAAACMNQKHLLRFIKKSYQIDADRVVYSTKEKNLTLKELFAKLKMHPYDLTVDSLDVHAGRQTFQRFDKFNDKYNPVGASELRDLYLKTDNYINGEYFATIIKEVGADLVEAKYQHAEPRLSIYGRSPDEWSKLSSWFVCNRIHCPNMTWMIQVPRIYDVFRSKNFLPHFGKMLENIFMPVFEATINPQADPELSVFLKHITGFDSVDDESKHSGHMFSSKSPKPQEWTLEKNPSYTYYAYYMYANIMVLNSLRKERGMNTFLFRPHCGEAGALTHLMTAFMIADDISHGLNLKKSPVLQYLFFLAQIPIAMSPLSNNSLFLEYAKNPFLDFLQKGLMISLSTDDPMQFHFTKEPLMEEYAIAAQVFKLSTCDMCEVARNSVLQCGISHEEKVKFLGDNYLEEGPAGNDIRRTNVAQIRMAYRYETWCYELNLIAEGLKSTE
The data set can be described thus: Inhibition of AMPD1 (unknown origin) at 100 uM.

Activity calls are given as the source filed them. The calls are words filed in the database; no cut-off is given here.

By IC50 is commonly meant the concentration that gives 50% inhibition. Turning to `CC1(C)CN(C(N)=O)c2cc(F)ccc2N1Cc1ccccc1`, the IC50 in data set [1] turned out to be 1.9 µM; in data set [2], 0.24 µM. Further, the Ratio IC50 in data set [3] is 8.2.

A word on the inhibition in vivo: it is the share of the control response that was lost under treatment. A high value points to strong suppression. On to `CC1(C)CN(C(N)=O)c2ccc(F)c(F)c2N1Cc1ccc(COc2ccccc2)cc1`, for which, in data set [2], the IC50 turned out to be 0.13 µM. The remaining at 1 h, 5 µM in data set [4] turned out to be 51%. Besides, at 30 mg/kg the inhibition in vivo in data set [5] was 24%.

`CC1(C)CN(C(N)=O)c2ccccc2N1Cc1ccc(OCc2ccccc2)cc1`: the IC50 in data set [1] amounted to 3.1 µM; in data set [2], 0.74 µM. The Ratio IC50 in data set [3] worked out at 4.2.

Consider `CC1(C)CN(C(N)=O)c2ccccc2N1Cc1cccc(OC(F)(F)F)c1`, for which the IC50 in data set [1] was 1.3 µM; in data set [2] it was 0.14 µM. Besides, in data set [3], the Ratio IC50 was determined as 9.2.

Turning to `CC1(C)CN(C(N)=O)c2ccccc2N1Cc1ccc(Cl)cc1`, the figures for the IC50 in data set [1] and in data set [2] were 1.7 µM and 0.19 µM, respectively. Moreover, in data set [3], the Ratio IC50 was 8.9.

`CNC(=O)N1CC(C)(C)N(Cc2ccccc2)c2ccccc21`: the IC50 in data set [1] is more than 100 µM.

Consider `CC1(C)CN(C(N)=O)c2cccc(F)c2N1Cc1ccccc1`, for which the IC50 in data set [1] was determined as 1.1 µM; in data set [2], 0.03 µM. The Ratio IC50 in data set [3] was determined as 36.

For the compound `CC1(C)CN(C(N)=O)c2ccc(F)c(F)c2N1Cc1ccc(COc2ccc(CO)cc2)cc1`, the values for the IC50 in data set [2] and in data set [6] were 0.1 µM and 0.11 µM, respectively. Further, in data set [4], the remaining at 1 h, 5 µM stood at 46%. In data set [5], testing at 30 mg/kg gave an inhibition in vivo of 83%.

For `Cc1cccc2c1N(Cc1ccccc1)C(C)(C)CN2C(N)=O`, the 50% inhibitory concentration (IC50) in data set [1] came to 5 µM; in data set [2], 2.2 µM. Also, the Ratio IC50 in data set [3] turned out to be 2.3.

Consider `CC1(C)CN(C(N)=O)c2ccccc2N1Cc1ccc(OC(F)(F)F)cc1`, for which the results for the IC50 in data set [1] and in data set [2] were 4.1 µM and 0.27 µM, respectively. Further, the Ratio IC50 in data set [3] was found to be 15.

As for `CC1(C)CN(C(N)=O)c2ccc(F)c(F)c2N1Cc1ccccc1`, the concentration for half-maximal inhibition (IC50) was determined as 1.8 µM in data set [1], 0.06 µM in data set [2] and 0.04 µM in data set [6]. Further, the Ratio IC50 in data set [3] stood at 33. In addition, the remaining at 1 h, 5 µM in data set [4] is 18%. This compound also gave an inhibition in vivo at 30 mg/kg in data set [5] of 71%.

Take `CC1(C)CN(C(N)=O)c2ccccc2N1Cc1cccc(CCc2ccccc2)c1`: the IC50 was more than 3 µM in data set [1] and 0.5 µM in data set [2].

Regarding `CCC(=O)N1CC(C)(C)N(Cc2ccccc2)c2ccccc21`, the IC50 in data set [1] is more than 100 µM.

Turning to `Cc1cccc(CN2c3ccccc3N(C(N)=O)CC2(C)C)c1`, the IC50 worked out at 2.3 µM in data set [1] and 0.3 µM in data set [2]. Besides, the Ratio IC50 in data set [3] is 7.5.

In the case of `CC1(C)CN(C(N)=O)c2c(F)cccc2N1Cc1ccccc1`, the IC50 stood at 4 µM in data set [1] and 0.5 µM in data set [2]. The Ratio IC50 in data set [3] was determined as 8.

Turning to `CC1(C)CN(C(N)=O)c2ccccc2N1Cc1ccc(CCc2ccccc2)cc1`, the half-maximal inhibitory concentration (IC50) in data set [1] is 6 µM; in data set [2], 0.41 µM. Further, in data set [3], the Ratio IC50 was 15.

As to `CC1(C)CN(C(N)=O)c2ccc(F)c(F)c2N1Cc1ccc(COc2ccc(C(N)=O)cc2)cc1`, in data set [2], the IC50 was determined as 0.2 µM. Further, the remaining at 1 h, 5 µM in data set [4] amounted to 56%. The inhibition in vivo at 30 mg/kg in data set [5] stood at 58%.

As to `CC1(C)CN(C(N)=O)c2ccccc2N1Cc1ccccc1`, the concentration for half-maximal inhibition (IC50) in data set [1] amounted to 3 µM; in data set [2], 0.27 µM. The Ratio IC50 in data set [3] is 11. For the same compound, the inhibition entry in data set [7] was “inactive”.

Regarding `CC1(C)CN(C(N)=O)c2ccccc2N1Cc1ccccc1Cl`, the concentration for half-maximal inhibition (IC50) in data set [1] turned out to be 21 µM; in data set [2], 12 µM. Further, the Ratio IC50 in data set [3] was 1.8.

In the case of `CC1(C)CN(C(N)=O)c2cccc(Cl)c2N1Cc1ccccc1`, the results for the IC50 in data set [1] and in data set [2] were 1.7 µM and 0.18 µM, respectively. Also, in data set [3], the Ratio IC50 amounted to 9.2.

Consider `CC1(C)CN(C(N)=O)c2ccc(F)cc2N1Cc1ccccc1`, for which the half-inhibitory concentration (IC50) in data set [1] came out at 5.1 µM; in data set [2], 1.1 µM. Besides, the Ratio IC50 in data set [3] came to 4.6.

As for `CC1(C)CN(C(N)=O)c2ccccc2N1Cc1ccc(COc2ccccc2)cc1`, the IC50 in data set [1] was determined as 2.6 µM; in data set [2], 0.11 µM. In data set [3], the Ratio IC50 came out at 25.

Consider `CC(=O)Nc1ccc(OCc2ccc(CN3c4c(ccc(F)c4F)N(C(N)=O)CC3(C)C)cc2)cc1`, for which the IC50 in data set [2] is 0.17 µM. Further, the remaining at 1 h, 5 µM in data set [4] came out at 34%. Besides, in data set [5], the inhibition in vivo at 30 mg/kg stood at 19%.

For the compound `CC1(C)CN(C(N)=O)c2cc(F)cc(F)c2N1Cc1ccccc1`, the IC50 in data set [1] was determined as 4.1 µM; in data set [2] it was 0.26 µM. The Ratio IC50 in data set [3] was found to be 16.

In the case of `CC(=O)N1CC(C)(C)N(Cc2ccccc2)c2ccccc21`, the figures for the half-inhibitory concentration (IC50) in data set [1] and in data set [2] were 57 µM and 41 µM, respectively. For the same compound, in data set [3], the Ratio IC50 amounted to 1.4.

With `CC1(C)CN(S(C)(=O)=O)c2ccccc2N1Cc1ccccc1`, in data set [1], the IC50 is more than 100 µM.

`Cc1ccc(CN2c3ccccc3N(C(N)=O)CC2(C)C)cc1`: the 50% inhibitory concentration (IC50) in data set [1] was 1.4 µM; in data set [2], 0.17 µM. The Ratio IC50 in data set [3] amounted to 8.2.

Values taken from ChEMBL document CHEMBL5236647, “The discovery of 3,3-dimethyl-1,2,3,4-tetrahydroquinoxaline-1-carboxamides as AMPD2 inhibitors with a novel mechanism of action” (Bioorg Med Chem Lett, 2023).
